# Assay results reported in PMC9518246, “Design and synthesis of new indole drug candidates to treat Alzheimer’s disease and targeting neuro-inflammation using a multi-target-directed ligand (MTDL) strategy” (Journal of Enzyme Inhibition and Medicinal Chemistry, 2022).
# pIC50: −log10 of the molar value.
# What was measured:
# [1] = system: TNF-α production in LPS-induced BV2 microglia cell lines; experiment: TNF-α assessment in LPS-induced BV2 microglia (ELISA); type: cell-based
# Protocol: TNF-α signalling exacerbates both Aβ and tau pathologies in vivo, according to several lines of evidence based on genetic and pharmacological modifications.
# (§1) LPS was the used positive control.
# For TNF-α, cell lysate was used to assess TNF-α using the MyBioSource ELISA kit (Catalog No: MBS2502004). This assay employs the quantitative sandwich enzyme immunoassay technique. Briefly, 100 µl of the samples were added to each well. Incubate for 90 min at 37 °C, and immediately add 100 μl of Biotinylated Detection Ab working solution to each well. Incubate for 1 h at 37 °C, then add 350 µl of wash buffer to each well, 100 μl of HRP Conjugate working solution to each well was added, incubated for 30 min at 37 °C. Add 90 μl of Substrate Reagent to each well. Incubate for about 15 min at 37 °C. Then, 50 μl of Stop Solution was added to each well. Finally, the optical density of each well was detected at 450 nm.
# [2] = system: NO production in LPS-induced BV2 microglia cell lines; experiment: Nitric oxide (NO) assessment in LPS-induced BV2 microglia; type: cell-based; details: positive control 6.42 pg/mL
# Protocol: In AD, increased production of vascular NO, a highly neurotoxic mediator in the CNS, may contribute to the vulnerability of neurons to injury and cell death.
# as §1
# NO plays an important role in neurotransmission, vascular regulation, immune response, and apoptosis. NO is rapidly oxidised to nitrite and nitrate which are used to quantitate NO. NO was estimated using the Abcam ELISA kit (catalog No. ab65328). Briefly, enzyme was added to cell lysate, followed with cofactor and incubated at room temperature for 60 min, after that Griess reagent was added and incubated at room temperature for 10 min., finally optical density was measured at 540 nm.
# Microglia cell Line, BV-2, human neuroblastoma (SH-SY5Y), and normal hepatic (THLE2) cells were obtained from American Type Culture Collection, cells were cultured using DMEM (Invitrogen/Life Technologies, Carlsbad, CA) supplemented with 10% FBS (Hyclone), 10 µg/mL of insulin (Sigma, St. Louis, MO), and 1% penicillin-streptomycin. All of the other chemicals and reagents were from Sigma, or Invitrogen. Plate cells (cells density 1.2 − 1.8 × 10,000 cells/well) in a volume of 100 µL complete growth medium + 100 µL of the tested compounds per well in a 96-well plate for 24 h before the MTT assay.
# Aβ1–42 = target: T1, Aβ1–42 (Homo sapiens, UniProt P05067); experiment: Inhibition of Aβ1-42 self-induced aggregation (BioVision ligand screening kit); type: biochemical; details: µM
# T1 construct: purchased BioVision K570-100
# From the text: Screening Aβ42 ligands that could prevent aggregation is critical for developing potential therapeutic treatments. In BioVision’s Beta-Amyloid 1–42 (Aβ42) Ligand Screening kit, a dye binds to the beta-sheets of an aggregated amyloid peptide resulting in an intense fluorescent product at wave length 450 nm using a BIOLINE ELISA reader. In the presence of an Aβ42 ligand, this reaction is impeded/abolished resulting in a decrease or total loss of fluorescence. This assay is useful in screening Aβ42 ligands for developing potential therapeutic agents against AD[42]. The assessment was performed according to BioVision’s Beta-Amyloid 1–42 (Aβ42) Ligand Screening Kit Catalog No. K570-100.
# AChE = AChE (Homo sapiens, UniProt P22303); experiment: biochemical; details: modified Ellman; read-out: AChE inhibitory activity IC50
# Protocol: (§2) The effects of twenty synthetic compounds were evaluated for AChE and BuChE inhibition using the modified method of Ellman et al.[33] […] AChE and BuChE are found in the brains of mammals. Genetically, structurally, and kinetically, the two kinds vary. In the human brain, BuChE is found in glial cells and neurons as well as in plaques and tangles in AD patients. […] BuChE may replace AChE by hydrolysing brain acetylcholine in some conditions, such as in mice nullizygote for AChE or in AD patients in advanced stages of the disease[34]^,[35].
# BuChE = BuChE (Homo sapiens, UniProt P06276); experiment: biochemical; details: modified Ellman; read-out: BuChE inhibitory activity IC50
# Protocol: as §2
# [3] = system: COX-2 production in LPS-induced BV2 microglia cell lines; experiment: COX-2 assessment in LPS-induced BV2 microglia (ELISA); type: cell-based
# Protocol: Previously, it was reported that COX-2 is a key mediator in the inflammatory response and may play a role in neurodegeneration.
# as §1
# For COX-2, all reagents, samples, and standards were prepared as Kit instructions, then 100 μl of standard or sample were added to each well, incubated 2.5 h at room temperature. Then 100 μl of prepared biotin antibody was added to each well, incubated an hour at room temperature. After that 100 μl of prepared Streptavidin solution was added. Then it was incubated for 45 min at room temperature. An aliquot of 100 μl TMB One-Step Substrate Reagent was added to each well, incubated 30 min at room temperature, 50 μL stop solution added to each well. Finally, the optical density was read at 450 nm immediately.
# [4] = system: IL-1β production in LPS-induced BV2 microglia cell lines; experiment: IL-1β assessment in LPS-induced BV2 microglia (ELISA); type: cell-based
# Protocol: IL-1β is a pro-inflammatory cytokines involved in the pathogenesis of AD[40]. So, activity of 5b and 6b derivatives were evaluated against LPS-induced BV2 microglia cell lines production of IL-1β. They induced a decrease in IL-1β level to about 5% and 48%, sequentially, as compared to a positive control (Figure 5).
# as §1
# For IL-1β, this assay employs the quantitative sandwich enzyme immunoassay technique. A monoclonal antibody specific for human IL-1β has been pre-coated onto a micro plate. Standards and samples are piped into the wells and any IL-1β present is bound by the immobilised antibody. After washing away any unbound substances, an enzyme-linked polyclonal antibody specific for human IL-1β is added to the wells. Following a wash to remove any unbound antibody-enzyme reagent, a substrate solution is added to the wells and colour develops in proportion to the amount of IL-1β bound in the initial step. The colour development is stopped and the intensity of the colour is measured, the method of assessment was performed as instructed in the IL-1 β R&D system ELISA kit (catalog No. DLB50).
# IL-1β production = system: IL-1β production; parameters: method as in PMID 21295616; details: read-out: suppression of IL-1β production IC50; cited from earlier work
# Sequence of AChE (P22303 32-614): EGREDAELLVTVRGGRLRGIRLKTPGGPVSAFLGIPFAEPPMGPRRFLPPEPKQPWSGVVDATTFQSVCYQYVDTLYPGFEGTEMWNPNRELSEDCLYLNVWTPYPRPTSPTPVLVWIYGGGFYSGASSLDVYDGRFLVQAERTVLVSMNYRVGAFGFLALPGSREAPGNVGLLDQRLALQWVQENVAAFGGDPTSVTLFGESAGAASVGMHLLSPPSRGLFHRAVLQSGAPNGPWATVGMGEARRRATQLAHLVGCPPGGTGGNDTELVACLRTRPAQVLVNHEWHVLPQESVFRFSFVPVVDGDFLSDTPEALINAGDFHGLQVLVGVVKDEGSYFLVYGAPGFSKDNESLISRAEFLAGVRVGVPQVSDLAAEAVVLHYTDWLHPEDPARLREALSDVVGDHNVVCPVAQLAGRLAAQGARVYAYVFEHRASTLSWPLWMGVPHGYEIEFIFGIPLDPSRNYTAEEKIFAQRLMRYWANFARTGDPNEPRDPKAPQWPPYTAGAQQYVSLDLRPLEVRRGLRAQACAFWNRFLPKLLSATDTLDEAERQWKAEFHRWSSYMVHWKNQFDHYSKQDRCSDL
# Sequence of BuChE (P06276 29-602): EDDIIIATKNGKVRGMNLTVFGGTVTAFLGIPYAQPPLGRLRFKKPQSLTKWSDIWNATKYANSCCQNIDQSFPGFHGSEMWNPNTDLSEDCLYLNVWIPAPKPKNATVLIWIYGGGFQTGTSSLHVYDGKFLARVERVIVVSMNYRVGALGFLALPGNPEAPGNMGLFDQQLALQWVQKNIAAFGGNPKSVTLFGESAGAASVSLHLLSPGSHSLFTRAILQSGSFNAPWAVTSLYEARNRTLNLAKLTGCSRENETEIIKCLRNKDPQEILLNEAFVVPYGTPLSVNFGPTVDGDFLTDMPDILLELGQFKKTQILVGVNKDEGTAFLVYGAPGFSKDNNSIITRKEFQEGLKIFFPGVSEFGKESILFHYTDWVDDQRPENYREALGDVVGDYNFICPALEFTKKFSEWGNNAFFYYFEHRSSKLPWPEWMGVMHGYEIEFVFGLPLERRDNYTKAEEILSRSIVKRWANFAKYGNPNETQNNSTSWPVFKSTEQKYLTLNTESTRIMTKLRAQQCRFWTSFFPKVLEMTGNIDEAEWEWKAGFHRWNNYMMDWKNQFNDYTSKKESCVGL
# T1 sequence (P05067 672-713 limits assumed): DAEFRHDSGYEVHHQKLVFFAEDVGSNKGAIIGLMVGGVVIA
SMILES,"decrease in TNF-α levels to, compared to positive control [1]",NO level [2],IC50 (Aβ1–42),pIC50 (AChE),pIC50 (BuChE),decrease in COX-2 levels as compared to a positive control [3],"decrease in IL-1β level to about, as compared to a positive control [4]",pIC50 (IL-1β production)
"CS(=O)(=O)n1cc(/C=C/C(=O)c2ccc(NC(=O)Cc3ccc(Cl)cc3)cc2)c2ccccc21 [Compound 5b, (E)-2–(4-Chlorophenyl)-N-{4-[3–(1-(methylsulfonyl)-1H-indol-3-yl)acryloyl]phenyl}acetamide]",53%,4.89 pg/mL,2.5 µM,7.56,7.43,about 20%,about 5%,–
"CS(=O)(=O)n1cc(/C=C/C(=O)c2ccc(NC(=O)CN3CCC(Cc4ccccc4)CC3)cc2)c2ccccc21 [Compound 6b, (E)-2–(4-Benzylpiperidin-1-yl)-N-{4-[3–(1-(methylsulfonyl)-1H-indol-3-yl)acryloyl]phenyl}acetamide]",67%,4.46 pg/mL,4.94 µM,7.31,7.09,~14%,~48%,–
Cc1cc(-c2ccccc2)nnc1C(=O)N1CCN(c2ncccn2)CC1 [GIBH-130],–,–,–,–,–,–,–,8.47
